Source: patent publication US20240358837A1, “Amorphous Photosensitizing Particles, Methods For The Preparation Thereof, And Methods For The Use Thereof” (priority 2021, published 2024)

Key:
blood-brain barrier = experiment: Photodynamic opening of the blood-brain barrier (Evans blue) in rats; format: in vivo, rat; conditions: low-dose PDT, 80 J/cm^2, 85 mW/cm^2
Description: Sprague-Dawley rats (4-5 weeks old, Envigo) received an intravenous injection of NanoVP (0.25 or 0.5 mg/kg) or 5-aminolevulinic acid (5-ALA, 20 or 125 mg/kg) at 30 min or 4 hours before PDT. PDT parameters, including photosensitizer concentration, drug-light interval, irradiance, and radiant exposure, were selected. At 30 minutes post-photosensitizer injection, rats were anesthetized with isoflurane and secured within a stereotaxic frame.
During the 30-minute drug-light interval, a craniotomy was performed. The top of the rat head was shaved, and the skin was removed. The periosteum was retracted to the edges of the skull. Using a micro drill (OmniDrill35, WPI), a circle about 4 mm in diameter was sketched into the right parietal bone. Drilling was stopped periodically, and PBS was applied to prevent heating. […]
PDT was performed by light activation of the exposed brain (NanoVP: 690 nm, 80 or 100 J/cm^2; 5-ALA: 635 nm, 60 or 80 J/cm^2; 40 or 85 mW/cm^2; ML6600, Modulight). At 90 minutes post-PDT, rats received an intravenous injection of Evans blue dye (2%, 4 mL/kg) to determine the blood-brain barrier integrity using imaging and extraction methods In particular, Evans blue was quantified. […] Samples were centrifuged to pellet the tissue, and the optical density of Evans blue within the supernatant at 610 nm was measured on a multi-mode microplate reader. […]

[1] = non-tumor-bearing animals, 125 mg/kg 5-ALA and 54 J, within 5 days of treatment; cited from earlier work
[2] = Fluorescence self-quenching (fluorescence in DMSO divided by fluorescence in PBS); format: physicochemical; conditions: 0.625-5 μM
Description: The stability of NanoVP particles in PBS at 4° C. was determined by monitoring their hydrodynamic size and polydispersity index using a particle sizer analyzer for up to one year. NanoVP singlet oxygen (^1O2) generation, self-quenching, and drug release were studied in 96-well plates as described previously. NanoVP and singlet oxygen sensor green (SOSG) at 5 μM were mixed and irradiated with 690 nm light (10 J/cm^2, 10 mW/cm^2; ML6600, Modulight). A multi-mode microplate reader (Synergy Neo2, BioTek) acquired fluorescence signals of VP (Excitation/Emission: 435/650-750 nm) or SOSG (Excitation/Emission: 504/525 nm) before and after light irradiation. Self-quenching (FDSMO/FO) is defined as the fluorescence after disruption of the NanoVP using DMSO (FDSMO) divided by the fluorescence of the NanoVP in PBS (FO). Photosensitizer release from NanoVP (de-quenching) was studied by monitoring the gain in VP fluorescence signal in PBS/DMSO buffer (0-100% v/v) at room temperature or in Eagle's Minimum Essential Medium (EMEM, Cellgro) with 0-10% v/v fetal bovine serum (FBS, Gibco) at 37° C.
Fluorescence photoactivity was defined as the maximal fluorescence intensity (FL) of NC-VP and L-VP in PBS divided by the maximal fluorescence intensity (FL) of NC-VP and L-VP in DMSO. The absorbance spectrums of the constructs over the visible spectrum were determined in PBS and DMSO. […]

U87 cells = experiment: PDT cell viability (MTT assay) in U87 cells; format: cell-based, human; conditions: MTT 24 hours after PDT, 0-5 J/cm^2, 10 mW/cm^2
Description: Cells were cultured overnight in a 35-mm Petri dish or 96-well black wall plates (1-3.3×10^4 cells/cm^2) and then incubated with photosensitizers (i.e., NanoVP, free-form VP, or Liposomal VP; 0.25 μM) for 24 hours. Subsequently, cells were washed twice with PBS and incubated with a photosensitizer free complete medium. Photosensitizer uptake in cells was determined using extraction methods followed by VP fluorescence measurements (Excitation/Emission: 435/700±10 nm, Synergy Neo2, BioTek) or visualized using fluorescence imaging (Lionheart, BioTek) as described previously. PDT was performed by exposing the cells to 690 nm light (0-10 J/cm^2, […], bottom illumination; ML6600, Modulight).
(§1) At 24 hours after PDT, cell viability was determined using MTT [3-(4,5-dimethylthiazol-2-yl)-2,5-diphenyltetrazolium bromide] assay or neutral red assay (Abcam) following the vendor's protocol. For dark toxicity evaluation, cells were incubated with media containing photosensitizers (0-40 μM) for 72 hours, followed by the MTT assay. The photosensitizer efflux by ATP binding cassette (ABC) transporters was studied in MCF-7 and its multi-drug resistant sublines (MCF-7 TX400 and MCF-7 MX100) by adapting the protocols described herein.

caspase 3 in U87 cells = experiment: Total and cleaved caspase 3 immunoblotting after PDT; format: cell-based, human; conditions: one-hour post light activation
Description: Expressions of total and cleaved caspase 3 were examined by immunoblotting techniques. U87 cells were plated in a 35-mm Petri dish (Falcon) at a density of 2.2×10^4 cells/cm^2. Cells were incubated with 0.25 μM of NanoVP, free-form VP, or Liposomal VP for 24 hours. Cells were washed twice with PBS and irradiated with 690-nm light (10 J/cm^2, 50 mW/cm^2) in a fresh culture medium. At 1 hour after PDT, cell lysates were collected in radioimmunoprecipitation assay (RIPA) buffer supplemented with a 1% protease inhibitor. Protein lysates (22 μg) were separated on a 4-12% precast Bis-Tris gel (NuPAGE) and transferred onto a nitrocellulose membrane. After blocking with Odyssey blocking buffer (Li-COR) for 1 hour, blots were incubated with primary antibody against beta-actin (#3700, cell signaling), caspase 3 (#9662, Cell Signaling,), or cleaved caspase 3 (#9661, Cell Signaling) overnight at 4° C. Blots were washed with 1X Tris-buffered Saline, 0.1% Tween® 20 Detergent (TBST) buffer followed by incubation with IRDye 680RD goat anti-mouse secondary antibody (926-68070, Li-COR) or IRDye 800CW goat anti-rabbit secondary antibody (926-32211, Li-COR) for 1 hour at room temperature based on the supplier's advice. Visualization of protein bands was developed using the LiCor ODYSSEY CLx (Li-COR). β-actin serviced as a loading control. Band intensity was determined using LiCOR ODYSSEY CLx software. PDT-treated samples were normalized to a no-treatment control.

U87 cancer cells = experiment: Lysosomal damage (neutral red uptake assay) after PDT; format: cell-based, human; conditions: 690 nm, 1 J/cm^2, 50 mW/cm^2; 0.25 μM
Description: as §1

Row | fluorescence self-quenching [2] | half maximal inhibition concentration (IC50) of PDT (U87 cells) [μM×J/cm^2] | Molecule | depth at which extravasated Evan Blue is visible in rat brain (blood-brain barrier) | mortality [1] [%] | cleaved-to-total caspase-3 ratio (caspase 3 in U87 cells) | reduction of total (pro) caspase-3 expression (caspase 3 in U87 cells) [%] | increase in cleaved caspase-3 formation (caspase 3 in U87 cells; 10 J/cm^2, 50 mW/cm^2) [fold] | lysosomal integrity (U87 cancer cells)
1 |  |  | NCC(=O)CCC(=O)O [5-ALA, 5-aminolevulinic acid] | up to 1 mm | 50 |  |  |  | 
2 | up to 78 fold | 0.20 | verteporfin [free-form VP] |  |  | ~4.4 | ~50 | ~2.4 | does not affect lysosomal integrity
